Assay results taken from US20220267753A1, “RATIONAL THERAPEUTIC TARGETING OF ONCOGENIC IMMUNE SIGNALING STATES IN MYELOID MALIGNANCIES VIA THE UBIQUITIN CONJUGATING ENZYME UBE2N” (CHILDREN'S HOSPITAL MEDICAL CENTER, priority 2019, published 2022).

Key:
Format in all cases: cell-based, human
[1] = system: MOLM-13 cells; assay: Trypan blue viability and Caspase 3 cleavage immunoblot
Experimental: AML cell lines (5×10^3 cells/well) were seeded in 96-well plates and grown for 24 to 96 h in serum (10%)-containing medium in the presence or absence of inhibitors at the indicated concentrations. Proliferation was analyzed by means of an MTS assay using the CellTiter 96 Aqueous One Solution Cell Proliferation Assay (Promega, Madison, Wis., USA), according to the manufacturer's instructions. Data are mean with standard deviation from three independent experiments in technical triplicates. For the screening of 160 compounds from the UC library, the cell metabolic activity was assessed at 24 hours of treatment of MOLM-13 cells. Top 15 candidates were re-screened at 2 μM, and the cell metabolic activity was determined at 24 hours of treatment. In certain experiments, cell viability was determined by staining the cells with trypan blue at a 1/2 dilution and counting total number of viable cells upon treatment with UC-764864 or DMSO control. The cells were counted daily for 4 days using an automated cell counter (Countess II FL from Life Technologies). […] UC-764864 was added at the indicated concentrations and cells were incubated with drug for 3 days, at which point cell viability was measured by MTS according to manufacturer's instructions. […]

[2] = system: AML cells (THP-1, MOLM-13, OCI-AML2, OCI-AML3, MDSL); assay: Colony formation (clonogenic) assay in AML/MDS cell lines; details: 2 μM
Experimental: In order to determine viability after UBE2N knockdown or inhibition, 1×10^6 AML cells were washed with PBS and mixed with pre-diluted APC-conjugated Annexin V (BD Pharmigen, Franklin Lakes, N.J.) and Propidium iodide (PI) (Invitrogen ThermoFisher 00-6990-42, Waltham, Mass.). Cells were stained at room temperature for 15 minutes and suspended in 0.5 ml of Annexin V incubation buffer (eBiosciences 88-8007-74, San Diego, Calif.) for analysis using a BD FACS Canto System (BD Biosciences, San Jose, Calif.). For UBE2N knockdown experiments, PI−/GFP+ cells were sorted using a MoFlo XDP sorter (Beckman Coulter, Brea, Calif.) and plated in methylcellulose (StemCell Technologies H4236, Vancouver, CA) at 1000 cells/ml in 35 mm culture dishes. For UBE2N inhibition experiments, cell lines were plated in methycellulose (StemCell Technologies H4236, Vancouver, CA) at the indicated concentrations of inhibitor. Cells were incubated at 37° C. and 5% CO2. Colonies were scored after 7 days in culture. For UBE2N or UBE2N C87S overexpression experiments, MOLM-13 cells were transduced with lentivectors overexpressing UBE2N wild type or mutant in the presence of polybrene (8 μg/ml). […] Colonies were scored at 7 days. […] Colonies were manually scored at 14-16 days after plating or counted with STEMVision (StemCell Technologies, Vancouver, CA).

[3] = system: THP-1 cells; assay: Colony formation assay of THP-1 cells with shControl or shUBE2N
From the text: For knockdown studies, UBE2N shRNA template oligonucleotides from the TRC shRNA library cloned into the pLKO.1 TRC cloning vector (Addgene: #10878) and pLKO.1 TRC cloning vector (Table 3). The puromycin gene in pLKO.1 was replaced with GFP. pLKO.1 TRC control was used as non-silencing control (Addgene: #10879). For production of lentiviral particles, lentiviral shRNA expression constructs were transfected together with packaging vectors into 293T producer cells using TransIT transfection reagent (Mirus, MIR 2306), supernatants were harvested after 48 and 72 hours, and concentrated by ultracentrifugation. […] UBE2N knockdown efficiency was determined by quantitative real time PCR (qRT-PCR) and western blot and quantified as described elsewhere. […] Levels of overexpression of UBE2N were determined by western blot.
In order to determine viability after UBE2N knockdown or inhibition, 1×10^6 AML cells were washed with PBS and mixed with pre-diluted APC-conjugated Annexin V (BD Pharmigen, Franklin Lakes, N.J.) and Propidium iodide (PI) (Invitrogen ThermoFisher 00-6990-42, Waltham, Mass.). […] Colonies were scored after 7 days in culture. […] Colonies were scored at 7 days. […] Colonies were manually scored at 14-16 days after plating or counted with STEMVision (StemCell Technologies, Vancouver, CA).

Compound: CCc1ccc(C(=O)C=CSc2nc3ccc(C)cc3[nH]2)cc1 [UC-764864, 1-(4-ethylphenyl)-3-[(6-methyl-1H-benzimidazol-2-yl)sulfanyl]prop-2-en-1-one]
- apoptosis (trypan blue uptake, cleavage of Caspase 3) [1]: increase in apoptosis
- reduction in colony formation vs vehicle [2]: 20-95%
- leukemic colony formation of THP-1 cells following knockdown of UBE2N [3]: did not significantly further suppress
- leukemic progenitor function (colony formation) of THP-1-shControl cells [3]: significantly repressed
